Experimental data taken from patent publication US10420731B1, “Method of synthesizing lignin-based nanocompositions” (KING SAUD UNIVERSITY, priority 2019, dated 2019).

How the values were obtained:
Caco-2 cells = assay: MTT cell viability assay; format: cell-based, human; settings: CUR 50 μM and 80 μM, 24 h, MTT (FIG. 9)
Procedure: Differentiated Caco-2 cells (ATCC, Rockville, Md., USA) were maintained in DMEM (4.5 g/L glucose) medium supplemented with 20% FBS (HyClone; Thermo Scientific, Waltham, Mass., USA), 1% non-essential amino acids, 1% L-glutamine, 1% streptomycin (100 μg/ml) and penicillin (100 IU/ml). The growth medium was changed every day in the first two weeks followed by three times a week.
Caco-2 cell line was transferred into 96-well plates, at a density of 5×10^4 cells per well. After cell adhesion, the culture media was removed and the cells were incubated with 250 μL of culture media containing a concentration range from 10 μM to 300 μM of CUR as free, CUR loaded LG NPs and equivalent unloaded LG NPs.
For free CUR, the samples were prepared from a stock solution in DMSO with appropriate dilutions to reach a maximum of 2% (v/v) of DMSO in each well. After a 24 h incubation period, the supernatant was removed and replaced by 100 μL of MTT solution (0.5 mg/ml) at (37 C°, 5% CO2) to allow MTT to be metabolized. […] Optical density was read at a wavelength of 570 nm using a microplate reader (ELX 800, Bio-Tek Instruments, Winooski, Vt., USA).
The induced cytotoxicity was calculated by comparing the optical density (OD) values against control wells. […] All measurements were performed in triplicate and the means±standard deviation (SD) were calculated.

Caco-2 cell monolayer = settings: in-vitro Caco-2 model system, previously known; cited from earlier work
[1] = reported; cited from earlier work
[2] = prior study; cited from earlier work

In the case of COc1cc(/C=C/C(=O)CC(=O)/C=C/c2ccc(O)c(OC)c2)ccc1O [curcumin], the Cell viability (Caco-2 cells) is listed as “below 50%”, the Papp (Caco-2 cell monolayer) is listed as under 3.18 ×10⁻⁶ cm/s and the “log P” value [1] is listed as 3.7. The Oral bioavailability [2] was 1%.
